Like-named read-outs stand apart in the source and are kept apart here.
Tests used:
C57BL/6j ob/ob Mice = test: glucose lowering activity of halofenate analogs in C57BL/6J ob/ob mice (Example 14); format: in vivo
Method: Male, 8-9 weeks old, C57BL/6J ob/ob mice were purchased from The Jackson Laboratory (Bar Harbor, Me., USA). Animals were housed (4-5 mice/cage) under standard laboratory conditions at 22±3° C. temperature and 50±20% relative humidity, and were maintained on a diet of Purina rodent chow and water ad libitum. Prior to treatment, blood was collected from the tail vein of each animal. Mice that had non-fasting plasma glucose levels between 250 and 500 mg/dl were used. Each treatment group consisted of 8-10 mice that were distributed so that the mean glucose levels were equivalent in each group at the start of the study. Mice were dosed orally by gavage once a day for 1-3 days with either vehicle, (−) halofenic acid, (±) analog 14, 29, 33, 34, 35, 36, 37, or 38 at 125 mg/kg or (−) analog 29, 36, 37 or 38 at 150 mg/kg. compounds were delivered in a liquid formulation containing 5% (v/v) dimethyl sulfoxide (DMSO), 1% (v/v) tween 80 and 0.9% (w/v) methylcellulose. The gavage volume was 10 ml/kg. Blood samples were taken at 6 hours after the each dose and analyzed for plasma glucose. Food intake and body weight were measured daily. Plasma glucose concentrations were determined calorimetrically using glucose oxidase method (Sigma Chemical Co, St. Louis, Mo., USA). Significant difference between groups (comparing drug-treated to vehicle-treated) was evaluated using the Student unpaired t-test.

PPARγ = molecular target: T1, PPARγ (Homo sapiens, UniProt P37231); test: partial agonism on PPARγ (Example 8, FIG. 6); format: cell-based
T1 sequence (P37231 1-505): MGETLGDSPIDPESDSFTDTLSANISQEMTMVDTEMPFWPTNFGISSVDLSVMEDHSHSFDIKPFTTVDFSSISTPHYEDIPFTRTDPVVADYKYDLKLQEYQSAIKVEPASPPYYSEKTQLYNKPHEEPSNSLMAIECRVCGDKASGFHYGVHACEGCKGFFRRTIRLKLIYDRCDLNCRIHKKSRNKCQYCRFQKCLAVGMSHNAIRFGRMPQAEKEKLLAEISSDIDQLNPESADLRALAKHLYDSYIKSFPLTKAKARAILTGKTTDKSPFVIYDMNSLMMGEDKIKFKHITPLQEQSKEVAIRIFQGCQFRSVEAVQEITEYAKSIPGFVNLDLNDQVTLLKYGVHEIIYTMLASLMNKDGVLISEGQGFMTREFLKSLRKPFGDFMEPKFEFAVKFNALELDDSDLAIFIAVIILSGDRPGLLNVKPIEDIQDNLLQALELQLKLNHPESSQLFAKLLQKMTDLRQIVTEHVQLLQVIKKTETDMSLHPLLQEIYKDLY
From the text: Expression of reporter genes in response to compounds identified as binders of PPARγ may also be used to measure PPARγ activation. PPARγ may be co-transfected with reporter genes known in the art such as, for example, luciferase, β-galactosidase, alkaline phosphatase, fluorescent green protein, or chloramphenicol acetyltransferase. The transfected cells can be exposed to appropriate concentrations of candidate compounds with rosiglitazone as a positive control. Reporter gene expression will be induced by compounds that bind and activate PPARγ. Thus, compounds that induce reporter gene expression can be identified as activators of PPARγ (Forman, et al. (1997) PNAS 94:4312). Preferably the compounds induce reporter gene expression at levels at least 5-10 fold, more preferably 10-100 fold, more preferably 100-500 fold, more preferably 500-1000 fold, most preferably greater than 1000 fold greater than the negative control.
Example 8 illustrates the partial agonism of the (−) isomer of either halofenic acid or halofenate on PPARγ (see, FIG. 6).

cytochrome P450 2C9 = cytochrome P450 2C9 (Homo sapiens, UniProt P11712); details: cited from earlier work
Chain of cytochrome P450 2C9 (P11712 whole entry): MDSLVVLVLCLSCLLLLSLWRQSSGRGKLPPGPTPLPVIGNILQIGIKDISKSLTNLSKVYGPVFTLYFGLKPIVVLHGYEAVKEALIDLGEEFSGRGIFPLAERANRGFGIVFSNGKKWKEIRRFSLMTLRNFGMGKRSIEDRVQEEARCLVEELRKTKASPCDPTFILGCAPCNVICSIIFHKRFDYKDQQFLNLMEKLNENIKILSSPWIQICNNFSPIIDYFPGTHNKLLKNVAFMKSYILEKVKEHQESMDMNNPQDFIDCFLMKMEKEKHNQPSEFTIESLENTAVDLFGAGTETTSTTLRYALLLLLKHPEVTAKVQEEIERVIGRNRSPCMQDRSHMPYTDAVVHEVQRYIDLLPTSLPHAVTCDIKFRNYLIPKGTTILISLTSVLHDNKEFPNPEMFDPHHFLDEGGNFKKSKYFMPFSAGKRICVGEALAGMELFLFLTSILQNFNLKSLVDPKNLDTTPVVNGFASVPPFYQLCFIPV

[1] = system: type 2 diabetics with inadequate control on insulin; test: randomized, double-blind, placebo-controlled, multi-centre studies on type 2 diabetics with inadequate control on insulin; format: in vivo, human
From the text: Example 9 presents the results of two randomized, double-blind, placebo-controlled, multi-centre studies on type 2 diabetics with inadequate control on insulin. […] Both studies were about 4 months long, with a stabilization/run in period for 2 to 4 weeks and a 3 month treatment period. Endpoints included fasting plasma glucose (FPG), HbA1c, weight, and the incidence of edema.

rats = test: separate animal studies: heart weight or fluid accumulation; format: in vivo; details: therapeutically relevant doses, data not shown
monkeys = test: as above; format: in vivo; details: therapeutically relevant doses, data not shown
[2] = system: human subjects also receiving glyburide; test: 14 days of treatment in human subjects also receiving glyburide (FIG. 19, 20); format: in vivo; details: after 14 days of treatment
From the text: The data for pioglitazone (Actos) is taken from Goldberg R B et al., Diabetes Care 28(7):1547-54 (2005), which is incorporated herein by reference.

[3] = 125 mg/kg oral gavage once a day
[4] = (−) analogs, single dose 150 mg/kg

In the case of `O=C(NCCOC(=O)C(Oc1cccc(C(F)(F)F)c1)c1ccc(Cl)cc1)c1ccccc1` (racemic) [(±)Analog 36], the “plasma glucose concentrations vs vehicle (in words)” value (C57BL/6j ob/ob Mice; [3]) is reported as “significantly lowered plasma glucose concentrations at 30 and 54 hours”.

For `NC(=O)COC(=O)C(Oc1cccc(C(F)(F)F)c1)c1ccc(Cl)cc1` (racemic) [(±)Analog 37], the “plasma glucose concentrations vs vehicle (in words)” value (C57BL/6j ob/ob Mice; [3]) was “significantly lowered plasma glucose concentrations at 54 hours”.

With `CN(C)C(=O)COC(=O)C(Oc1cccc(C(F)(F)F)c1)c1ccc(Cl)cc1` (racemic) [(±)Analog 38] the “plasma glucose concentrations vs vehicle (in words)” value (C57BL/6j ob/ob Mice; [3]) was “significantly lowered plasma glucose concentrations at 6, 30 and 54 hours”.

In the case of `O=C(O)C(Oc1ccc(Cl)cc1-n1nc2ccccc2n1)c1ccccc1` (racemic) [Formula V], the “kind of PPARγ agonism” value (PPARγ) is reported as “partial PPARγ agonists”.

In the case of `O=C(O)C(Oc1cccc(C(F)(F)F)c1)c1ccc(Cl)cc1` (racemic) [racemic halofenic acid, 4-Chlorophenyl-(3-trifluoromethylphenoxy)-acetic Acid, reference compound], the “inhibition of cytochrome P450 2C9” value (cytochrome P450 2C9) is given as “found to inhibit” and the “kind of PPARγ agonism” value (PPARγ) is given as “partial PPARγ agonists”.

For `O=C(O)C(Oc1cccc(C(F)(F)F)c1)c1ccc(Cl)cc1` (single isomer, unassigned; (+)) [(+) enantiomer of halofenic acid, (+) 4-chlorophenyl-(3-trifluoromethylphenoxy)-acetic acid], the “inhibition of cytochrome P450 2C9” value (cytochrome P450 2C9) is given as “quite potent”.

With `CC(=O)NCCOC(=O)C(Oc1cccc(C(F)(F)F)c1)c1ccc(Cl)cc1` (single isomer, unassigned; (-)) [(−) halofenate, (−) 2-acetamidoethyl 4-chlorophenyl-(3-trifluoromethylphenoxy)acetate] the “plasma glucose levels as judged by HbA1c levels compared to placebo group” value ([1]; 600 mg, analysis removing sites 60 and 70, FIG. 13) was “lowered”, the “fasting plasma glucose levels compared to placebo group” value ([1]; 600 mg, sites 60 and 70 removed, FIG. 14, even greater extent than the 400 mg dose) was “lowered” and the “plasma glucose levels as judged by HbA1c levels compared to placebo group” value ([1]; 200- and 400 mg, sites 60 and 70 removed, FIG. 15) was “lowered”. For the same compound, the “fasting plasma glucose levels compared to placebo group” value ([1]; 200- and 400 mg, sites 60 and 70 removed, FIG. 16) was “lowered”, the anti-edema activity ([1]; Phase II clinical trial) was “had anti-edema activity of its own” and the “side effects: hepatoxicity, edema, heart failure, increased weight gain” value ([1]; Phase II clinical trial) was “largely free”. For the same compound, the “adverse effects on selected parameters of upper GI tract, liver, blood, kidney” value ([1]; data not shown) was “not associated with an excess of adverse effects”, the “effect on the HDL/cholesterol profile” value ([1]; data not shown) was “neutral effect” and the serum triglycerides ([1]; data not shown) was “lowered serum triglycerides substantially”. The “weight gain compared to placebo group” value ([1]; dose of 600 mg, FIG. 18) was “did not induce weight gain”, the “incidence of edema formation compared to combined placebo groups” value ([1]; dose range of 200- to 600 mg, both studies, FIG. 17) was “did not increase the incidence of edema formation” and the “edema formation compared to placebo groups” value ([1]; doses of 200- and 400 mg, FIG. 9) was “prevented edema formation”. The “weight gain compared to placebo group” value ([1]; doses of 200- and 400 mg, FIG. 10) was “did not induce weight gain”, the “Discontinued due to AE, patients (%)” value ([1]; first study, 200 mg group) was 3 (4.1%) and the “Discontinued due to AE, patients (%)” value ([1]; first study, 400 mg group) was 3 (4.3%). The “fasting plasma glucose levels compared to placebo group” value ([1]; first study, doses of 200- and 400 mg, FIG. 7) was “lowered”, the “plasma glucose levels as judged by HbA1c levels compared to placebo group” value ([1]; first study, doses of 200- and 400 mg, FIG. 8) was “lowered” and the “Discontinued due to AE, patients (%)” value ([1]; second study, 600 mg group) was 0 (0%). The “plasma glucose levels as judged by HbA1c levels, from baseline” value ([1]; second study, 600 mg, FIG. 12, placebo group demonstrated a comparable response) was “lowered”, the “fasting plasma glucose levels compared to placebo group” value ([1]; second study, dose of 600 mg, FIG. 11) was “lowered” and the “kind of PPARγ agonism” value (PPARγ) was “partial agonist”. For the same compound, the “antagonizing the agonist activity of rosiglitazone” value (PPARγ; FIG. 6) was “significantly antagonizing”, the “increases in heart weight or fluid accumulation” value (rats) was “did not cause increases” and the “increases in heart weight or fluid accumulation” value (monkeys) was “did not cause increases”. The “blood glucose levels in patients also receiving glyburide” value ([2]; FIG. 19) was “substantially lower” and the hsCRP levels ([2]; FIG. 20) was “lower”.

With `CC(=O)NCCOC(=O)C(Oc1cccc(C(F)(F)F)c1)c1ccc(Br)cc1` (single isomer, unassigned; (-)) [(−)Analog 29] the “plasma glucose concentrations vs vehicle (in words)” value (C57BL/6j ob/ob Mice; [4]) was “significantly reduced plasma glucose concentrations at 6 hours”.

With `O=C(NCCOC(=O)C(Oc1cccc(C(F)(F)F)c1)c1ccc(Cl)cc1)c1ccccc1` (single isomer, unassigned; (-)) [(−)Analog 36] the “plasma glucose concentrations vs vehicle (in words)” value (C57BL/6j ob/ob Mice; [4]) was “significantly reduced plasma glucose concentrations at 6 hours”.

In the case of `NC(=O)COC(=O)C(Oc1cccc(C(F)(F)F)c1)c1ccc(Cl)cc1` (single isomer, unassigned; (-)) [(−)Analog 37], the “plasma glucose concentrations vs vehicle (in words)” value (C57BL/6j ob/ob Mice; [4]) is reported as “significantly reduced plasma glucose concentrations at 6 hours”.

For `CN(C)C(=O)COC(=O)C(Oc1cccc(C(F)(F)F)c1)c1ccc(Cl)cc1` (single isomer, unassigned; (-)) [(−)Analog 38], the “plasma glucose concentrations vs vehicle (in words)” value (C57BL/6j ob/ob Mice; [4]) was “significantly reduced plasma glucose concentrations at 6 hours”.

For `O=C(O)C(Oc1cccc(C(F)(F)F)c1)c1ccc(Cl)cc1` (single isomer, unassigned; (-)) [(−)halofenic acid, (−) (3-trifluoromethylphenoxy) (4-chlorophenyl)acetic acid], the “plasma glucose concentrations vs vehicle (in words)” value (C57BL/6j ob/ob Mice; [3]) is given as “significantly reduced plasma glucose concentrations at 6 hours”, the “inhibition of cytochrome P450 2C9” value (cytochrome P450 2C9; listed as (−) enantiomer of halofenic acid) is given as “about twenty-fold less active” and the “kind of PPARγ agonism” value (PPARγ) is given as “partial agonist”. For the same compound, the “ability to induce PPARγ expression” value (PPARγ; FIG. 6) was “a few fold” and the “antagonizing the agonist activity of rosiglitazone” value (PPARγ; FIG. 6) was “significantly antagonizing”.

Source: patent publication US8288438B2, “Methods for avoiding edema in the treatment or prevention of PPARγ-responsive diseases, including cancer” (Metabolex, Inc., priority 2005, dated 2012)
